Numbers after ± are expanded uncertainties.
Test: xn = mol fraction of the nth substance listed
Settings: for surface tension liquid-gas / mass density: draining crucible method; for viscosity / mass density: 101 kPa, Liquid; for viscosity: Draining crucible

[Al] [aluminum] + [Zn]
Settings | mass density, x1 = 0.25 [kg/m3] | mass density, x1 = 0.51 [kg/m3] | mass density, x1 = 0.83 [kg/m3] | surface tension liquid-gas, x1 = 0.25 [mN/m] | surface tension liquid-gas, x1 = 0.51 [mN/m] | surface tension liquid-gas, x1 = 0.83 [mN/m] | viscosity, x1 = 0.25 [mPa·s] | viscosity, x1 = 0.51 [mPa·s] | viscosity, x1 = 0.83 [mPa·s]
873 K | 5201 ± 86 | 4204 ± 86 | – | 802.1 ± 49 | 830.8 ± 49 | – | 1.917 ± 0.095 | 1.633 ± 0.095 | –
923 K | 5139 ± 86 | 4138 ± 88 | 2720 ± 89 | 789.4 ± 49 | 819.6 ± 49 | 858.7 ± 49 | 1.791 ± 0.095 | 1.542 ± 0.094 | 1.356 ± 0.094
973 K | 5089 ± 86 | 4089 ± 88 | 2680 ± 89 | 779.3 ± 49 | 806.5 ± 49 | 848.1 ± 49 | 1.696 ± 0.095 | 1.448 ± 0.094 | 1.271 ± 0.094
1023 K | 5011 ± 86 | 3995 ± 88 | 2530 ± 90 | 763.8 ± 49 | 795.8 ± 49 | 836.9 ± 49 | 1.643 ± 0.094 | 1.405 ± 0.094 | 1.222 ± 0.094
